Results on 36 molecules are retold here after US6509379B1, “Phenylacetic acid derivatives, process and intermediate products for their preparation, and their use as fungicides and pesticides” (BASF Aktiengesellschaft, priority 1995, dated 2003).

Data set [1] concerns powdery mildew of wheat (Erysiphe graminis var. tritici). In words: Efficacy against powdery mildew of wheat (protective spray on potted wheat seedlings). The format is in vivo. Particulars: wheat seedlings cv. Frühgold, sprayed 24 hours before dusting with oidia, evaluated after 7 days, untreated 70. The procedure:
(§1) The active ingredients are formulated as a 20% strength emulsion in a mixture of 70% by weight of cyclohexanone, 20% by weight of Nekanil® LN (Lutensol® AP6, wetting agent having emulsifier and dispersing action based on ethoxylated alkylphenols) and 10% by weight of Emulphor® EL (Emulan® EL, emulsifier based on ethoxylated fatty alcohols) and diluted with water to give the desired concentration. The experiments were evaluated visually.
Leaves of wheat seedlings cv. “Frühgold” in pots were sprayed with aqueous spray mixture comprising 80% of active ingredient of Table 1 and 20% of emulsifier in the dry matter and, 24 hours after the spray coating had dried on, dusted with oidia (spores) of powdery mildew of wheat (Erysiphe graminis var. tritici). The test plants were subsequently placed in a greenhouse at from 20 to 22° C. and a relative atmospheric humidity of 75 to 80%. After 7 days, the extent of mildew development was determined.

Data set [2] concerns leaf rust of wheat (Puccinia recondite). In words: Efficacy against leaf rust of wheat (spray after infection of potted wheat seedlings). Particulars: wheat seedlings cv. Kanzler, sprayed 24 hours after dusting with spores, evaluated after 8 days, untreated 70. The format is in vivo. The method, then:
as §1
Leaves of wheat seedlings cv. “Kanzler” in pots were dusted with leaf rust spores (Puccinia recondite). The pots were then placed for 24 hours in a chamber with high atmospheric humidity (90 to 95%) at from 20 to 22° C. During this time, the spores germinated, and the germ tubes penetrated the leaf tissue. The infected plants were subsequently sprayed to runoff point with aqueous spray mixtures comprising 80% of active ingredient of Table 1 and 20% of emulsifier in the dry matter. After the spray coating had dried on, the test plants were placed in a greenhouse at from 20 to 22° C. and a relative atmospheric humidity of 65 to 70%. After 8 days, the extent of rust development on the leaves was determined.

On to `CNC(=O)C(=NOC)c1ccccc1CON=C(C)C(=NOC)c1ccc(N(OC)C(=O)OC)cc1` [I.25], for which the “% infection of the leaves after application of an aqueous preparation comprising 250 ppm of active ingredient” value in data set [1] came to 5%. Regarding `CC=C(C(=O)OC)c1ccccc1CON=C(C)C(=NOC)c1ccc(N(CC)C(=O)C(C)(C)C)cc1` [I.45], in data set [2] (63 ppm), the “% infection of the leaves after application of an aqueous preparation comprising . . . ppm of active ingredient” value amounted to 15%. The “% infection of the leaves after application of an aqueous preparation comprising 250 ppm of active ingredient” value in data set [1] was 15%.

As for `CC=C(C(=O)OC)c1ccccc1CON=C(C)C(=NOC)c1ccc(N(CC)C(C)=O)cc1` [I.41], in data set [2] (63 ppm), the “% infection of the leaves after application of an aqueous preparation comprising . . . ppm of active ingredient” value turned out to be 15%. In data set [1], the “% infection of the leaves after application of an aqueous preparation comprising 250 ppm of active ingredient” value is recorded as 15%. On to `CNC(=O)/C(=N/OC)c1ccccc1CO/N=C(C)/C(=N/OC)c1ccc(/C(C)=N/OC)cc1` [I.52], for which, in data set [2] (16 ppm), the “% infection of the leaves after application of an aqueous preparation comprising . . . ppm of active ingredient” value is 0%. In data set [1], the “% infection of the leaves after application of an aqueous preparation comprising 250 ppm of active ingredient” value was 15%.

The molecule `CO/N=C(\C)c1ccc(C(=N\OC)/C(C)=N/OCc2ccccc2/C(=N\OC)C(=O)OC)cc1` [I.51] registered a melting point of 112 to 114 °C. On to `CCC(=O)Nc1ccc(C(=NOC)C(C)=NOCc2ccccc2C(=COC)C(=O)OC)cc1` [I.16], for which the “% infection of the leaves after application of an aqueous preparation comprising 250 ppm of active ingredient” value in data set [1] is on record as 5%. Take `CC=C(C(=O)OC)c1ccccc1CON=C(C)C(=NOC)c1ccc(NC(=O)C(C)(C)C)cc1` [I.43]: the “% infection of the leaves after application of an aqueous preparation comprising . . . ppm of active ingredient” value in data set [2] (63 ppm) is 5%. Moreover, in data set [1], the “% infection of the leaves after application of an aqueous preparation comprising 250 ppm of active ingredient” value is recorded as 15%. For `CCC(=O)N(C)c1ccc(C(=NOC)C(C)=NOCc2ccccc2C(=NOC)C(=O)NC)cc1` [I.5], in that order: 0% and 5%.

On to `CON=Cc1ccc(C(=NOC)C(C)=NOCc2ccccc2C(=NOC)C(=O)OC)cc1` [I.53], for which the “% infection of the leaves after application of an aqueous preparation comprising 250 ppm of active ingredient” value in data set [1] turned out to be 15%. Consider `C#CCON=C(C(C)=NOCc1ccccc1C(=COC)C(=O)OC)c1ccc(C(C)=NOCC)cc1` [I.56], for which, in data set [2] (63 ppm), the “% infection of the leaves after application of an aqueous preparation comprising . . . ppm of active ingredient” value is reported as 15%. Take `CCCCN(C(=O)C(C)(C)C)c1ccc(C(=NOC)C(C)=NOCc2ccccc2C(=NOC)C(=O)NC)cc1` [I.27]: the “% infection of the leaves after application of an aqueous preparation comprising . . . ppm of active ingredient” value in data set [2] (16 ppm) is reported as 3%. The “% infection of the leaves after application of an aqueous preparation comprising 250 ppm of active ingredient” value in data set [1] was determined as 5%. `CCCN(C(=O)CC)c1ccc(C(=NOC)C(C)=NOCc2ccccc2C(=NOC)C(=O)NC)cc1` [I.15]: the “% infection of the leaves after application of an aqueous preparation comprising 250 ppm of active ingredient” value in data set [1] is on record as 5%. On the same count and under the same terms, for `CCC(=O)N(CC)c1ccc(C(=NOC)C(C)=NOCc2ccccc2C(=COC)C(=O)OC)cc1` [I.18] the value was 5%. For `CCC(=O)N(CC)c1ccc(C(=NOC)C(C)=NOCc2ccccc2C(=NOC)C(=O)NC)cc1` [I.8], in data set [2] (63 ppm), the “% infection of the leaves after application of an aqueous preparation comprising . . . ppm of active ingredient” value came out at 0%. The “% infection of the leaves after application of an aqueous preparation comprising 250 ppm of active ingredient” value in data set [1] is given as 0%. `CCC(=O)N(C)c1ccc(C(=NOC)C(C)=NOCc2ccccc2C(=COC)C(=O)OC)cc1` [I.17]: in data set [1], the “% infection of the leaves after application of an aqueous preparation comprising 250 ppm of active ingredient” value was determined as 15%. In the case of `CCCN(C(=O)C(C)(C)C)c1ccc(C(=NOC)C(C)=NOCc2ccccc2C(=NOC)C(=O)NC)cc1` [I.32], the “% infection of the leaves after application of an aqueous preparation comprising . . . ppm of active ingredient” value in data set [2] (16 ppm) worked out at 0%. Also, the “% infection of the leaves after application of an aqueous preparation comprising 250 ppm of active ingredient” value in data set [1] is reported as 15%. On to `CO/N=C(/C(C)=N/OCc1ccccc1/C(=N\OC)C(=O)OC)c1ccc(N(C)C(=O)C(C)(C)C)cc1` [I.12], for which the melting point is 111 to 113 °C. Also, the “% infection of the leaves after application of an aqueous preparation comprising . . . ppm of active ingredient” value in data set [2] (63 ppm) was 15%. The “% infection of the leaves after application of an aqueous preparation comprising 250 ppm of active ingredient” value in data set [1] came out at 5%. Consider `CC=C(C(=O)OC)c1ccccc1CON=C(C)C(=NOC)c1ccc(N(CCC)C(=O)CC)cc1` [I.23], for which, in data set [1], the “% infection of the leaves after application of an aqueous preparation comprising 250 ppm of active ingredient” value was 15%. Take `CC=C(C(=O)OC)c1ccccc1CON=C(C)C(=NOC)c1ccc(N(C)C(C)=O)cc1` [I.40]: in data set [2] (63 ppm), the “% infection of the leaves after application of an aqueous preparation comprising . . . ppm of active ingredient” value was 0%. The “% infection of the leaves after application of an aqueous preparation comprising 250 ppm of active ingredient” value in data set [1] worked out at 15%. Turning to `CC=C(C(=O)OC)c1ccccc1CON=C(C)C(=NOC)c1ccc(NC(=O)CC)cc1` [I.20], the “% infection of the leaves after application of an aqueous preparation comprising 250 ppm of active ingredient” value in data set [1] came to 15%. `CNC(=O)/C(=N/OC)c1ccccc1CO/N=C(C)/C(=N/OC)c1ccc(N(C)C(=O)C(C)(C)C)cc1` [I.10] came in with a melting point of 168 to 170 °C. For `CC=C(C(=O)OC)c1ccccc1CON=C(C)C(=NOC)c1ccc(N(C)C(=O)C(C)(C)C)cc1` [I.44], the “% infection of the leaves after application of an aqueous preparation comprising . . . ppm of active ingredient” value in data set [2] (63 ppm) turned out to be 5%.

As for `COC=C(C(=O)OC)c1ccccc1CON=C(C)C(=NOC)c1ccc(NC(=O)C(C)(C)C)cc1` [I.13], the figures for the “% infection of the leaves after application of an aqueous preparation comprising . . . ppm of active ingredient” value in data set [2] (16 ppm) and in data set [2] (63 ppm) were 5% and 15%, respectively. Further, the “% infection of the leaves after application of an aqueous preparation comprising 250 ppm of active ingredient” value in data set [1] was found to be 0%. Regarding `CCCN(C(C)=O)c1ccc(C(=NOC)C(C)=NOCc2ccccc2C(=NOC)C(=O)NC)cc1` [I.31], the “% infection of the leaves after application of an aqueous preparation comprising . . . ppm of active ingredient” value in data set [2] (16 ppm) is recorded as 0%. Moreover, the “% infection of the leaves after application of an aqueous preparation comprising 250 ppm of active ingredient” value in data set [1] was 15%.

For the molecule `CC=C(C(=O)OC)c1ccccc1CON=C(C)C(=NOC)c1ccc(N(C)C(=O)CC)cc1` [I.21], the “% infection of the leaves after application of an aqueous preparation comprising 250 ppm of active ingredient” value in data set [1] is reported as 5%.

Turning to `COC=C(C(=O)OC)c1ccccc1CON=C(C)C(=NOC)c1ccc(C=NOC)cc1` [I.59], the “% infection of the leaves after application of an aqueous preparation comprising . . . ppm of active ingredient” value in data set [2] (63 ppm) is 10%. The “% infection of the leaves after application of an aqueous preparation comprising 250 ppm of active ingredient” value in data set [1] was found to be 0%. For `C#CCON=C(C(C)=NOCc1ccccc1C(=COC)C(=O)OC)c1ccc(C(C)=NOC)cc1` [I.57] the same measures were 15% and 0%.

In the case of `CCCN(C(=O)CC)c1ccc(C(=NOC)C(C)=NOCc2ccccc2C(=COC)C(=O)OC)cc1` [I.19], in data set [1], the “% infection of the leaves after application of an aqueous preparation comprising 250 ppm of active ingredient” value came out at 5%.

Take `CCN(C(C)=O)c1ccc(C(=NOC)C(C)=NOCc2ccccc2C(=NOC)C(=O)NC)cc1` [I.30]: the “% infection of the leaves after application of an aqueous preparation comprising . . . ppm of active ingredient” value in data set [2] (16 ppm) was determined as 15%.

For `CNC(=O)C(=NOC)c1ccccc1CON=C(C)C(=NOC)c1ccc(N(C)C(C)=O)cc1` [I.29], the “% infection of the leaves after application of an aqueous preparation comprising . . . ppm of active ingredient” value in data set [2] (16 ppm) is 5%. Molecule `CO/N=C(/C(C)=N/OCc1ccccc1/C(=N\OC)C(=O)OC)c1ccc(NC(=O)C(C)(C)C)cc1` [I.11] showed a melting point of 114 to 116 °C.

Take `CC=C(C(=O)OC)c1ccccc1CON=C(C)C(=NOC)c1ccc(N(CC)C(=O)CC)cc1` [I.22]: the “% infection of the leaves after application of an aqueous preparation comprising 250 ppm of active ingredient” value in data set [1] amounted to 15%. Consider `CNC(=O)C(=NOC)c1ccccc1CON=C(C)C(=NOC)c1ccc(C=NOC)cc1` [I.54], for which the “% infection of the leaves after application of an aqueous preparation comprising . . . ppm of active ingredient” value in data set [2] (16 ppm) amounted to 0%. Further, the “% infection of the leaves after application of an aqueous preparation comprising 250 ppm of active ingredient” value in data set [1] turned out to be 5%. In the case of `CC=C(C(=O)OC)c1ccccc1CON=C(C)C(=NOC)c1ccc(C=NOC)cc1` [I.58], in data set [2] (63 ppm), the “% infection of the leaves after application of an aqueous preparation comprising . . . ppm of active ingredient” value stood at 0%. In data set [1], the “% infection of the leaves after application of an aqueous preparation comprising 250 ppm of active ingredient” value is 0%. As to `CCON=C(C)c1ccc(C(=NOC)C(C)=NOCc2ccccc2C(=NOC)C(=O)NC)cc1` [I.55], the “% infection of the leaves after application of an aqueous preparation comprising . . . ppm of active ingredient” value in data set [2] (16 ppm) was determined as 0%. For the same molecule, the “% infection of the leaves after application of an aqueous preparation comprising 250 ppm of active ingredient” value in data set [1] is recorded as 15%.

As for `CCN(C(=O)C(C)(C)C)c1ccc(C(=NOC)C(C)=NOCc2ccccc2C(=NOC)C(=O)NC)cc1` [I.26], the “% infection of the leaves after application of an aqueous preparation comprising 250 ppm of active ingredient” value in data set [1] turned out to be 15%.

As usually defined, the melting point is the temperature, or range, at which the solid turns liquid.
